Results on two compounds are retold here after PMC12618397 (Clinical Pharmacokinetics, 2025).

SMILES strings stand for the structures. Read-outs that look alike come from different tables or passages of the source.

Series [1] is classed as in vivo, humans. Conditions: final model.
For a further series, the system named is plasma protein. Conditions: cited from earlier work.
The next series has as its system OATP1B. Conditions: oral glyburide 1.25 mg, i.v. infusion of 600 mg rifampicin, over 24 h; cited from earlier work.
For series [2] the following is noted: cited from earlier work.

As for `COc1ccc(Cl)cc1C(=O)NCCc1ccc(S(=O)(=O)NC(=O)NC2CCCCC2)cc1` [[^11C]glyburide], in series [1], the “clearance CL=VB×ke” value amounted to 2.84 L/h, the “kBP (transfer blood to pancreas)” value came out at 5.9 h⁻¹, the “kBS (transfer blood to spleen)” value stood at 5.9 h⁻¹ and the “kPB (transfer pancreas to blood)” value was 138 h⁻¹. Besides, the “kSB (transfer spleen to blood)” value in series [1] stood at 131 h⁻¹. In series [1] (without rifampicin), the “kL1B (exchange rate liver to blood)” value amounted to 20 h⁻^1. In the series on plasma protein, the “binding to plasma protein” value is listed as over 99%.
Turning to `COc1ccc(Cl)cc1C(=O)NCCc1ccc(S(=O)(=O)NC(=O)NC2CCCCC2)cc1` [glyburide], the “increase of plasma AUC vs baseline” value in the series on OATP1B is recorded as 125 ± 51.5%. Besides, the “volume of distribution outside central compartment (previous estimates)” value in series [2] (95% CI 1.3–3.2 L derived from reported estimates) is 2 L. Moreover, in series [2] (Rydberg et al.), the “central volume of distribution” value is reported as 3.63 L and the elimination rate is recorded as 1.59 h⁻^1. Also, the “central volume of distribution” value in series [2] (traditional PK modeling, blood samples) is given as 3.8 L.
